According to patent US20240398943A1, “METHODS OF TREATING CANCER AND THE PHARMACEUTICAL COMPOSITIONS THEREOF” (SYSTIMMUNE, INC., priority 2021, published 2024):
Several values for one entry are separate records, joined by “and”; a condition that tells them apart may be missing. Identical values can stand only once. Like-named read-outs stand apart in the source and are kept apart here.

Key:
[1] = system: FaDu cells (wild type EGFR) tumor xenograft
Experimental: (§1) Xenotransplantation of human cancer cells into immunocompromised mice is a gold-standard model used for pre-clinical oncology research and testing of anti-cancer therapies. In general, human cancer cell lines are injected below the skin of the mouse. […] The primary outcome parameter is growth inhibition by the drug, for which tumor size is measured over time, often externally with calipers. After the tumor reaches a certain size, the mice are euthanized. Drug effects on the tumor are further analyzed on a tissue level or molecular level (e.g., DNA, proteins). The primary outcome parameter of a xenograft model for testing drug efficacy is the growth of the treated tumor versus control. Typically, xenograft tumors grow from 100 mm^3 (6 mm diameter) to 1000 mm^3 (12 mm diameter) in several weeks. The growth rate often declines with larger tumor sizes, as opposed to exponential growth in (2D) in vitro experiments. Tumor growth inhibition varies per drug and implanted cell line. The effect of therapeutics can be directly on tumor cells, or indirectly via the microenvironment such as the inhibition of vessel formation, or both.
(§2) The experiment animals used were of Balb/c-nu mouse, female, ages 5^˜7 weeks, weight 17^˜21 g.
To establish xenograft model of HNSCC, human head and neck cancer cells, FaDu cells, were transplanted into the mice to establish the xenograft model of HNSCC. FaDu is a cell line isolated from a hypopharyngeal tumor of a squamous cell carcinoma patient, which expresses wild type EGFR (ATCC).
(§3) Each of the three human cancer cell lines was cultured in RPMI1640 medium containing 10% fetal bovine serum, collected in the exponential growth phase, resuspended in PBS to a suitable concentration, and used for subcutaneous tumor implantation in mice.
When the tumor grew to an average volume of about 230 mm3, randomly grouped according to tumor size and mouse weight to establish human head and neck squamous cell carcinoma cells FaDu xenograft model.
(§4) Tumor volume (mm3) V=½×(a×b)^2, where a represents the long diameter and b represents the short diameter. Relative tumor volume (RTV), RTV=Vt/V0, where V0 is the tumor volume at time 0 and Vt is the tumor volume after treatment at time t. The T/C value (%) is an indicator of the tumor response to treatment and is the most used evaluation indicator. T/C %=TRTV/CRTV×100%, where TRTV is treatment group average RTV and CRTV is control group average RTV. The T/C value (%) can also be calculated as T/C %=TTW/CTW×100%, where TTW is the average tumor weight at the end of the treatment group experiment and CTW is the average tumor weight at the end of the control group experiment.

[2] = system: NCI-H1975 cells (EGFR L858R/T790M) tumor xenograft
Experimental: as §1, §2
(§5) To establish xenograft model of NSCLC, two lung cancer cell lines expressing were used. Human lung adenocarcinoma cell line HCC827_936 was clonally derived from HCC827 cell line isolated from NSCLC tissue of a patient (ATCC). HCC827_936 cells express EGFR mutations of exon19del and exon20ins. The other lung cancer cell line, NCI-H1975 cells (ATCC), express the EGFR L858R/T790M double mutation.
as §3
When the tumor grew to an average volume of about 170 mm^3, randomly grouped according to tumor size and mouse weight to establish […] NCI-H1975 xenograft model.
as §4, with “(mm^3)” for “(mm3)”

[3] = system: HCC827_936 cells (EGFR exon19del and exon20ins) tumor xenograft
Experimental: as §1, §2, §5, §3
When the tumor grew to an average volume of about 163 mm^3, randomly grouped according to tumor size and mouse weight to establish HCC827_936 xenograft model.
as §4, with “(mm^3)” for “(mm3)”

[4] = Osimertinib 96 mg/kg p.o. QD, Day 25
[5] = Osimertinib 96 mg/kg/wk p.o. QD, Day 31

paclitaxel+carboplatin
body weight / weight loss ([1]; all dose groups of the treatment): fluctuated significantly
death of mice before the end of the experiment ([1]; all dose groups of the treatment, 5 mice per group): 4
mortality rate ([1]; paclitaxel 20.6 + carboplatin 28 mg/kg i.v. QW): 80%
mice with severe weight loss (>20%) before death ([1]; paclitaxel 20.6 + carboplatin 28 mg/kg i.v. QW, of the 4 mice that died): 3
TGI ([1]; paclitaxel […] + carboplatin 28 mg/kg i.v. QW): 56.16%

C=CC(=O)Nc1cc(Nc2nccc(-c3cn(C)c4ccccc34)n2)c(OC)cc1N(C)CCN(C)C [Osimertinib]
T/C [2, 4]: 4.7%
Tumor volume x ± SD [2, 4]: 75.02 mm^3
TGI ([2]; mouse, in vivo): 95.35% and 95.4%
Tumor volume x ± SD ([2]; mouse, in vivo): 75.0 ± 60.3 mm^3
mice died before D25 ([2]; mouse, in vivo): no mouse died
T/C [3, 5]: 45.1%
Tumor volume x ± SD [3, 5]: 344.53 mm^3
mortality rate ([3]; Osimertinib single-agent (96 mg/kg), before D31): 60%
mice died before D31 ([3]; female, Balb/c-nu, mouse, in vivo): 3
TGI ([3]; mouse, in vivo): 54.89% and 54.9%
Tumor volume x ± SD ([3]; mouse, in vivo): 344.5 ± 23.6 mm^3
